The values below come from US9278091B2, “Compounds for the treatment of Clostridium difficile associated disease” (Summit Therapeutics PLC, priority 2010, dated 2016).

Common to all, as to type: cell-based
In assay [1] the test system is Staphylococcus aureus ATCC29213. Kind of assay: MIC by broth microdilution (CLSI) against S. aureus. Particulars: read-out: minimum inhibitory concentration (MIC) S. aureus. The protocol: (§1) The term “minimum inhibitory concentration” or “MIC” defines the lowest concentration of a test compound that is needed to inhibit growth of a bacterial isolate in vitro. A common method for determining the MIC of an antibiotic is to prepare several tubes containing serial dilutions of the test compound that are then inoculated with the bacterial isolate of interest.
(§2) MIC data were determined by broth microdilution according to CLSI protocols described in Methods for Antimicrobial Susceptibility Testing of Anaerobic Bacteria; Approved Standard-Seventh Edition [M11-A7, Vol. 27, No 2, January 2007] and Methods for Dilution Antimicrobial Susceptibility Tests for Bacteria That Grow Aerobically; Approved Standard—Seventh Edition [M7-A7, Vol. 26, No 2, January 2006].
(§3) The bacterial strains used were: • Bacteroides fragilis ATCC 25285 • Escherichia coli ATCC25922 • Lactobacillus paracasei Z1 83 • Bifidobacterium dentium NCTC 11816 • B. adolescentis MWR144 • Staphylococcus aureus ATCC29213 • Enterococcus faecalis ATCC29212
Background: In broth dilution the organism is exposed to a series of concentrations in liquid medium.

Assay [2] has as its system Escherichia coli ATCC25922. As to the kind of experiment: MIC by broth microdilution (CLSI) against E. coli. As to conditions: read-out: minimum inhibitory concentration (MIC) E. coli. The protocol:
as §1, §2, §3

For assay [3], the system named is Clostridium difficile ATCC700057. Kind of assay: MIC by broth microdilution (CLSI) against Clostridium difficile. As to conditions: Clostridioides difficile, read-out: minimum inhibitory concentration (MIC) C. difficile. The protocol: as §1, §2
The subject of assay [4] is Bifidobacterium dentium NCTC 11816. As to the kind of experiment: MIC by broth microdilution (CLSI) against B. dentium. Particulars: NCTC11816, read-out: minimum inhibitory concentration (MIC) B. dentium. The protocol:
as §1, §2, §3

Assay [5] concerns Enterococcus faecalis ATCC29212. Kind of assay: MIC by broth microdilution (CLSI) against E. faecalis. Particulars: read-out: minimum inhibitory concentration (MIC) E. faecalis. The protocol: as §1, §2, §3
The subject of assay [6] is Bacteroides fragilis ATCC 25285. As to the kind of experiment: MIC by broth microdilution (CLSI) against B. fragilis. Particulars: ATCC25285, read-out: minimum inhibitory concentration (MIC) B. fragilis. The protocol: as §1, §2, §3
The next assay deals with B. adolescentis MWR144. As to the kind of experiment: MIC by broth microdilution (CLSI) against B. adolescentis. As to conditions: Bifidobacterium adolescentis, read-out: minimum inhibitory concentration (MIC) B. adolescentis. The protocol:
as §1, §2, §3

Assay [7] deals with Lactobacillus paracasei Z1 83. Kind of assay: MIC by broth microdilution (CLSI) against L. paracasei. Particulars: Lacticaseibacillus paracasei, Z183, read-out: minimum inhibitory concentration (MIC) L. paracasei. The procedure: as §1, §2, §3

As to `c1cc(-c2nc3ccc(-c4ccc5[nH]c(-c6ccc7[nH]ccc7c6)nc5c4)cc3[nH]2)ccn1` [Example 6, 2-(1H-indol-5-yl)-2′-(pyridin-4-yl)-1H,3′H-5,5′-bibenzo[d]imidazole], the MIC in assay [1] was at most 32 µg/mL; in assay [2], at least 64 µg/mL; in assay [3], at most 1 µg/mL; in assay [4], at least 64 µg/mL; in assay [5], at least 64 µg/mL; in assay [6], at least 64 µg/mL. The MIC in the assay on B. adolescentis MWR144 is at most 32 µg/mL; in assay [7] it was at least 64 µg/mL.

`c1ccc2sc(-c3nc4cc(-c5ccc6[nH]c(-c7ccncc7)nc6c5)ccc4[nH]3)cc2c1` [Example 2, 2-(benzo[b]thiophen-2-yl)-2′-(pyridin-4-yl)-1H,1′H-5,5′-bibenzo[d]imidazole]: the MIC in assay [1] is at least 64 µg/mL; in assay [2], at least 64 µg/mL; in assay [3] it was at most 4 µg/mL; in assay [4], at least 64 µg/mL; in assay [5], at least 64 µg/mL; in assay [6], at least 64 µg/mL. Besides, the MIC (in the assay with B. adolescentis MWR144; in assay [7]) was at least 64 µg/mL each time.

For `c1cncc(-c2nc3cc(-c4ccc5[nH]c(-c6cc7cccnc7s6)nc5c4)ccc3[nH]2)c1` [Example 13, 2-(2′-(pyridin-3-yl)-1H,1′H-[5,5′-bibenzo[d]imidazol]-2-yl)thieno[2,3-b]pyridine], the MIC was at least 64 µg/mL in assay [1]; at least 64 µg/mL in assay [2]; at most 1 µg/mL in assay [3]; at least 64 µg/mL in assay [4]; at least 64 µg/mL in assay [5]; at least 64 µg/mL in assay [6]. Besides, the MIC (with B. adolescentis MWR144; in assay [7]) was at least 64 µg/mL in each case.

For the compound `c1ccc2oc(-c3nc4cc(-c5ccc6[nH]c(-c7ccncc7)nc6c5)ccc4[nH]3)cc2c1` [Example 10, 2-(benzofuran-2-yl)-2′-(pyridin-4-yl)-1H,1′H-5,5′-bibenzo[d]imidazole], the MIC in assay [1] is at most 32 µg/mL; in assay [2], at least 64 µg/mL; in assay [3], at most 1 µg/mL; in assay [4] it was at least 64 µg/mL; in assay [5], at least 64 µg/mL; in assay [6] it was at least 64 µg/mL. For the same compound, the values for the MIC (in the assay on B. adolescentis MWR144; in assay [7]) were at most 32 µg/mL and at least 64 µg/mL, respectively.

On to `c1cc(-c2nc3cc(-c4ccc5[nH]c(-c6cc7ccncc7s6)nc5c4)ccc3[nH]2)ccn1` [Example 11, 2-(2′-(pyridin-4-yl)-1H,1′H-[5,5′-bibenzo[d]imidazol]-2-yl)thieno[2,3-c]pyridine], for which the MIC in assay [1] was at least 64 µg/mL; in assay [2], at least 64 µg/mL; in assay [3], at most 1 µg/mL; in assay [4], at least 64 µg/mL; in assay [5], at least 64 µg/mL; in assay [6] it was at least 64 µg/mL. For the same compound, the MIC (in the assay with B. adolescentis MWR144; in assay [7]) was at least 64 µg/mL throughout.

For the compound `c1cc(-c2nc3ccc(-c4ccc5[nH]c(-c6ccc7[nH]cnc7c6)nc5c4)cc3[nH]2)ccn1` [Example 4, 6-(2′-(pyridin-4-yl)-1H,3′H-5,5′-bibenzo[d]imidazol-2-yl)benzo[d]imidazole], the MIC in assay [1] was at least 64 µg/mL; in assay [2], at least 64 µg/mL; in assay [3], at most 1 µg/mL; in assay [4] it was at least 64 µg/mL; in assay [5], at least 64 µg/mL; in assay [6] it was at least 64 µg/mL. Besides, the MIC (in the assay with B. adolescentis MWR144; in assay [7]) was at least 64 µg/mL throughout.

On to `c1cc(-c2nc3ccc(-c4ccc5[nH]c(-c6ccc7sccc7c6)nc5c4)cc3[nH]2)ccn1` [Example 5, 2-(benzo[b]thiophen-5-yl)-2′-(pyridin-4-yl)-1H,3′H-5,5′-bibenzo[d]imidazole], for which the MIC in assay [1] is at least 64 µg/mL; in assay [2] it was at least 64 µg/mL; in assay [3], at most 1 µg/mL; in assay [4], at least 64 µg/mL; in assay [5], at most 32 µg/mL; in assay [6], at least 64 µg/mL. Moreover, the MIC in the assay on B. adolescentis MWR144 was at most 32 µg/mL; in assay [7] it was at least 64 µg/mL.

As to `c1cnc2sc(-c3nc4cc(-c5ccc6[nH]c(-c7ccncc7)nc6c5)ccc4[nH]3)cc2c1` [Example 1, 2-(2′-(pyridin-4-yl)-1H,1′H-5,5′-bibenzo[d]imidazol-2-yl)thieno[2,3-b]pyridine], the MIC in assay [1] is at least 64 µg/mL; in assay [2] it was at least 64 µg/mL; in assay [3], at most 1 µg/mL; in assay [4] it was at least 64 µg/mL; in assay [5] it was at least 64 µg/mL; in assay [6] it was at least 64 µg/mL. Besides, the MIC in the assay on B. adolescentis MWR144 is at most 32 µg/mL; in assay [7], at least 64 µg/mL.

`c1cncc(-c2nc3cc(-c4ccc5[nH]c(-c6ccc7nccn7c6)nc5c4)ccc3[nH]2)c1` [Example 12, 2-(imidazo[1,2-a]pyridin-6-yl)-2′-(pyridin-3-yl)-1H,1′H-5,5′-bibenzo[d]imidazole]: the MIC in assay [1] was at least 64 µg/mL; in assay [2], at least 64 µg/mL; in assay [3], at most 1 µg/mL; in assay [4], at least 64 µg/mL; in assay [5] it was at least 64 µg/mL; in assay [6] it was at least 64 µg/mL. Also, the MIC (in the assay on B. adolescentis MWR144; in assay [7]) was at least 64 µg/mL in each case.

In the case of `c1cc(-c2nc3cc(-c4ccc5[nH]c(-c6ccc7occc7c6)nc5c4)ccc3[nH]2)ccn1` [Example 3, 2-(benzofuran-5-yl)-2′-(pyridin-4-yl)-1H,1′H-5,5′-bibenzo[d]imidazole], the MIC is at most 1 µg/mL in assay [1]; at least 64 µg/mL in assay [2]; at most 1 µg/mL in assay [3]; at most 32 µg/mL in assay [4]; at most 1 µg/mL in assay [5]; at least 64 µg/mL in assay [6]. In addition, the MIC is at most 4 µg/mL in the assay on B. adolescentis MWR144 and at most 32 µg/mL in assay [7].

Take `c1cc(-c2nc3ccc(-c4ccc5[nH]c(-c6ccc7c(c6)CCO7)nc5c4)cc3[nH]2)ccn1` [Example 7, 2-(2,3-dihydrobenzofuran-5-yl)-2′-(pyridin-4-yl)-1H,3′H-5,5′-bibenzo[d]imidazole]: the MIC in assay [1] was at least 64 µg/mL; in assay [2], at least 64 µg/mL; in assay [3], at most 1 µg/mL; in assay [4], at least 64 µg/mL; in assay [5], at most 4 µg/mL; in assay [6], at least 64 µg/mL. Besides, the MIC with B. adolescentis MWR144 is at most 4 µg/mL; in assay [7], at least 64 µg/mL.

For `c1cc(-c2nc3cc(-c4ccc5[nH]c(-c6ccc7c(c6)OCO7)nc5c4)ccc3[nH]2)ccn1` [Example 9, 2-(benzo[d][1,3]dioxol-5-yl)-2′-(pyridin-4-yl)-1H,1′H-5,5′-bibenzo[d]imidazole], the MIC in assay [1] was at least 64 µg/mL; in assay [2], at least 64 µg/mL; in assay [3], at most 1 µg/mL; in assay [4], at least 64 µg/mL; in assay [5], at least 64 µg/mL; in assay [6], at least 64 µg/mL. Also, the MIC (in the assay with B. adolescentis MWR144; in assay [7]) was at least 64 µg/mL throughout.

In the case of `c1cc(-c2nc3cc(-c4ccc5[nH]c(-c6ccc7nccn7c6)nc5c4)ccc3[nH]2)ccn1` [Example 8, 2-(imidazo[1,2-a]pyridin-6-yl)-2′-(pyridin-4-yl)-1H,1′H-5,5′-bibenzo[d]imidazole], the MIC in assay [1] is at least 64 µg/mL; in assay [2], at least 64 µg/mL; in assay [3], at most 1 µg/mL; in assay [4], at least 64 µg/mL; in assay [5], at least 64 µg/mL; in assay [6], at least 64 µg/mL. Also, the MIC (with B. adolescentis MWR144; in assay [7]) was at least 64 µg/mL in each case.
